# Like-named read-outs stand apart in the source and are kept apart here.
# B1: pegloticase (protein)
# chain: TYKKNDEVEFVRTGYGKDMIKVLHIQRDGKYHSIKEVATTVQLTLSSKKDYLHGDNSDVIPTDTIKNTVNVLAKFKGIKSIETFAVTICEHFLSSFKHVIRAQVYVEEVPWKRFEKNGVKHVHAFIYTPTGTHFCEVEQIRNGPPVIHSGIKDLKVLKTTQSGFEGFIKDQFTTLPEVKDRCFATQVYCKWRYHQGRDVDFEATWDTVRSIVLQKFAGPYDKGEYSPSVQKTLYDIQVLTLGQVPEIEDMEISLPNIHYLNIDMSKMGLINKEEVLLPLDNPYGKITGTVKRKLSSRL
# modifications: monomethoxy PEG conjugated; Krystexxa Sequence
# notes: covalent conjugate of uricase produced by a genetically modified strain of Escherichia coli and monomethoxypoly (ethylene glycol)
# How the values were obtained:
# [1] = tested on: patients with uncontrolled gout
# Excerpt: As used herein, an “adverse event” or “AE” refers to any untoward medical occurrence associated with the use of a drug in humans, whether it is considered drug-related or not. An AE or suspected adverse reaction is considered a “serious adverse event” or “SAE” if, in the view of either the Investigator or Sponsor, it results in any of the following outcomes: (1) Death, (2) Life-threatening: an AE is considered “life-threatening” if, in the view of either the Investigator or Sponsor, its occurrence places the subject or subject at immediate risk of death. […] (5) A congenital anomaly/birth defect; (6) Important medical events that may not result in death, be life-threatening, or require hospitalization may be considered serious when, based upon appropriate medical judgment, they may jeopardize the patient or subject and may require medical or surgical intervention to prevent one of the outcomes listed in this definition.
# Safety Variables: Safety was assessed via AE and concomitant medication use monitoring, physical examinations, vital signs, clinical safety laboratory evaluations (hematology, chemistry, urine uric acid:creatinine ratio), pregnancy testing (if applicable), electrocardiograms (ECGs), and AEs of special interest (i.e., IRs, anaphylaxis, gout flares, and cardiovascular events).
# AEs of special interest may include IRs, anaphylaxis, gout flares, and cardiovascular events.
# Severity in accordance with the disclosure is reported according to the following: Grade 1 (Mild)—No interference with daily activity. Grade 2 (Moderate)—Some interference with daily activity but medical intervention not required (e.g., doctor visit and/or medication); over the counter medicine permitted. Grade 3 (Severe)—Prevents daily activity and requires medical intervention (e.g., doctor visit and/or medication). Grade 4 (Potentially Life-threatening)—Emergency room visit or hospitalization.
# An AE was defined as any untoward event, whether or not it was considered related to the use of pegloticase or MTX. Any worsening (i.e., any clinically significant adverse change in frequency or intensity) of a preexisting condition which was temporally associated with the use of pegloticase or MTX was also considered an AE. Abnormal laboratory values or test results constitute AEs only if they induce clinical signs or symptoms or require therapy, and were recorded on the AE CRF under the signs, symptoms or were associated with diagnoses associated with them. Screening conditions were not considered AE; however, worsening of a preexisting condition may be considered an AE. AEs were collected starting at the baseline, Visit 1.
# TEAEs during the Pegloticase+IMM Period were defined as events that occur after the start of the first pegloticase infusion through 30 days after the last dose of pegloticase and/or MTX or placebo for MTX (whichever was later). TEAEs that occur during the MTX Tolerability Assessment Period prior to randomization (Weeks −6 to −4) was summarized separately for the MTX population. […] AEs that occur more than 30 days after the last dose of pegloticase and/or MTX or placebo for MTX through the 6-month follow-up visit was also summarized.
# [2] = cited from earlier work
# [3] = tested on: patients with chronic gout; settings: cited from earlier work
# [4] = tested on: anti-pegloticase antibodies; settings: cited from earlier work
molecule,measurement,setting,value
"CN(Cc1cnc2nc(N)nc(N)c2n1)c1ccc(C(=O)N[C@@H](CCC(=O)O)C(=O)O)cc1 [MTX, methotrexate]","Infections And Infestations, %",[1],(13.3) %
same,"Infections And Infestations, Incidence Rate",[1],1.8 Events/PY of MTX
same,"Infections And Infestations, Total Events",[1],2
same,"Blood And Lymphatic System Disorders, %",[1]; ITT N = 15,(6.7) %
same,"Chronic Sinusitis, %",[1]; ITT N = 15,(6.7) %
same,"Cough, %",[1]; ITT N = 15,(6.7) %
same,"Dental Caries, %",[1]; ITT N = 15,(6.7) %
same,"Diarrhoea, %",[1]; ITT N = 15,(6.7) %
same,"Dry Eye, %",[1]; ITT N = 15,(6.7) %
same,"Eye Disorders, %",[1]; ITT N = 15,(6.7) %
same,"Headache, %",[1]; ITT N = 15,(6.7) %
same,"Leukopenia, %",[1]; ITT N = 15,(6.7) %
same,"Nasopharyngitis, %",[1]; ITT N = 15,(6.7) %
same,"Nervous System Disorders, %",[1]; ITT N = 15,(6.7) %
same,"Neutropenia, %",[1]; ITT N = 15,(6.7) %
same,"Pruritus, %",[1]; ITT N = 15,(6.7) %
same,"Respiratory, Thoracic And Mediastinal Disorders, %",[1]; ITT N = 15,(6.7) %
same,"Skin And Subcutaneous Tissue Disorders, %",[1]; ITT N = 15,(6.7) %
same,"Abdominal Discomfort, Incidence Rate","[1]; ITT N = 15, PY of MTX = 1.1",1.8 Events/PY of MTX
same,"Blood And Lymphatic System Disorders, Incidence Rate","[1]; ITT N = 15, PY of MTX = 1.1",1.8 Events/PY of MTX
same,"Chronic Sinusitis, Incidence Rate","[1]; ITT N = 15, PY of MTX = 1.1",0.9 Events/PY of MTX
same,"Cough, Incidence Rate","[1]; ITT N = 15, PY of MTX = 1.1",0.9 Events/PY of MTX
same,"Dental Caries, Incidence Rate","[1]; ITT N = 15, PY of MTX = 1.1",0.9 Events/PY of MTX
same,"Diarrhoea, Incidence Rate","[1]; ITT N = 15, PY of MTX = 1.1",0.9 Events/PY of MTX
same,"Dry Eye, Incidence Rate","[1]; ITT N = 15, PY of MTX = 1.1",0.9 Events/PY of MTX
same,"Eye Disorders, Incidence Rate","[1]; ITT N = 15, PY of MTX = 1.1",0.9 Events/PY of MTX
same,"Gastrointestinal Disorders, Incidence Rate","[1]; ITT N = 15, PY of MTX = 1.1",5.5 Events/PY of MTX
same,"Gout, Incidence Rate","[1]; ITT N = 15, PY of MTX = 1.1",5.5 Events/PY of MTX
same,"Headache, Incidence Rate","[1]; ITT N = 15, PY of MTX = 1.1",0.9 Events/PY of MTX
same,"Leukopenia, Incidence Rate","[1]; ITT N = 15, PY of MTX = 1.1",0.9 Events/PY of MTX
same,"Metabolism And Nutrition Disorders, Incidence Rate","[1]; ITT N = 15, PY of MTX = 1.1",5.5 Events/PY of MTX
same,"Nasopharyngitis, Incidence Rate","[1]; ITT N = 15, PY of MTX = 1.1",0.9 Events/PY of MTX
same,"Nausea, Incidence Rate","[1]; ITT N = 15, PY of MTX = 1.1",1.8 Events/PY of MTX
same,"Nervous System Disorders, Incidence Rate","[1]; ITT N = 15, PY of MTX = 1.1",0.9 Events/PY of MTX
same,"Neutropenia, Incidence Rate","[1]; ITT N = 15, PY of MTX = 1.1",0.9 Events/PY of MTX
same,"Pruritus, Incidence Rate","[1]; ITT N = 15, PY of MTX = 1.1",0.9 Events/PY of MTX
same,"Respiratory, Thoracic And Mediastinal Disorders, Incidence Rate","[1]; ITT N = 15, PY of MTX = 1.1",0.9 Events/PY of MTX
same,"Skin And Subcutaneous Tissue Disorders, Incidence Rate","[1]; ITT N = 15, PY of MTX = 1.1",0.9 Events/PY of MTX
same,"Blood And Lymphatic System Disorders, %",[1]; mITT N = 14,(7.1) %
same,"Chronic Sinusitis, %",[1]; mITT N = 14,(7.1) %
same,"Cough, %",[1]; mITT N = 14,(7.1) %
same,"Dental Caries, %",[1]; mITT N = 14,(7.1) %
same,"Diarrhoea, %",[1]; mITT N = 14,(7.1) %
same,"Dry Eye, %",[1]; mITT N = 14,(7.1) %
same,"Eye Disorders, %",[1]; mITT N = 14,(7.1) %
same,"Headache, %",[1]; mITT N = 14,(7.1) %
same,"Infections And Infestations, %",[1]; mITT N = 14,(14.3) %
same,"Infections And Infestations, Total Events",[1]; mITT N = 14,2
same,"Leukopenia, %",[1]; mITT N = 14,(7.1) %
same,"Nasopharyngitis, %",[1]; mITT N = 14,(7.1) %
same,"Nervous System Disorders, %",[1]; mITT N = 14,(7.1) %
same,"Neutropenia, %",[1]; mITT N = 14,(7.1) %
same,"Pruritus, %",[1]; mITT N = 14,(7.1) %
same,"Respiratory, Thoracic And Mediastinal Disorders, %",[1]; mITT N = 14,(7.1) %
same,"Skin And Subcutaneous Tissue Disorders, %",[1]; mITT N = 14,(7.1) %
same,"Abdominal Discomfort, Incidence Rate","[1]; mITT N = 14, PY of MTX = 1.0",2.0 Events/PY of MTX
same,"Any TEAEs, Incidence Rate","[1]; mITT N = 14, PY of MTX = 1.0",20.0 Events/PY of MTX
same,"Blood And Lymphatic System Disorders, Incidence Rate","[1]; mITT N = 14, PY of MTX = 1.0",2.0 Events/PY of MTX
same,"Chronic Sinusitis, Incidence Rate","[1]; mITT N = 14, PY of MTX = 1.0",1.0 Events/PY of MTX
same,"Cough, Incidence Rate","[1]; mITT N = 14, PY of MTX = 1.0",1.0 Events/PY of MTX
same,"Dental Caries, Incidence Rate","[1]; mITT N = 14, PY of MTX = 1.0",1.0 Events/PY of MTX
same,"Diarrhoea, Incidence Rate","[1]; mITT N = 14, PY of MTX = 1.0",1.0 Events/PY of MTX
same,"Dry Eye, Incidence Rate","[1]; mITT N = 14, PY of MTX = 1.0",1.0 Events/PY of MTX
same,"Eye Disorders, Incidence Rate","[1]; mITT N = 14, PY of MTX = 1.0",1.0 Events/PY of MTX
same,"Gastrointestinal Disorders, Incidence Rate","[1]; mITT N = 14, PY of MTX = 1.0",6.0 Events/PY of MTX
same,"Gout, Incidence Rate","[1]; mITT N = 14, PY of MTX = 1.0",6.0 Events/PY of MTX
same,"Headache, Incidence Rate","[1]; mITT N = 14, PY of MTX = 1.0",1.0 Events/PY of MTX
same,"Infections And Infestations, Incidence Rate","[1]; mITT N = 14, PY of MTX = 1.0",2.0 Events/PY of MTX
same,"Leukopenia, Incidence Rate","[1]; mITT N = 14, PY of MTX = 1.0",1.0 Events/PY of MTX
same,"Metabolism And Nutrition Disorders, Incidence Rate","[1]; mITT N = 14, PY of MTX = 1.0",6.0 Events/PY of MTX
same,"Nasopharyngitis, Incidence Rate","[1]; mITT N = 14, PY of MTX = 1.0",1.0 Events/PY of MTX
same,"Nausea, Incidence Rate","[1]; mITT N = 14, PY of MTX = 1.0",2.0 Events/PY of MTX
same,"Nervous System Disorders, Incidence Rate","[1]; mITT N = 14, PY of MTX = 1.0",1.0 Events/PY of MTX
same,"Neutropenia, Incidence Rate","[1]; mITT N = 14, PY of MTX = 1.0",1.0 Events/PY of MTX
same,"Pruritus, Incidence Rate","[1]; mITT N = 14, PY of MTX = 1.0",1.0 Events/PY of MTX
same,"Respiratory, Thoracic And Mediastinal Disorders, Incidence Rate","[1]; mITT N = 14, PY of MTX = 1.0",1.0 Events/PY of MTX
same,"Skin And Subcutaneous Tissue Disorders, Incidence Rate","[1]; mITT N = 14, PY of MTX = 1.0",1.0 Events/PY of MTX
same,Increased susceptibility to infection,[2]; RA,< 1%
same,Leukopenia,[2]; RA,28%
same,Nausea and vomiting,[2]; RA,12%
same,Increased susceptibility to infection,[2]; renal transplant,20%
same,Leukopenia,[2]; renal transplant,> 50%
same,neoplasia (lymphoma),[2]; renal transplant,0.5%
same,neoplasia (other than lymphoma),[2]; renal transplant,3%
B1,patients with IRs in whom loss of response (return to SUA >6 mg/dL) preceded the first IR,[3]; 20/21 pegloticase-treated patients with IRs,95%
same,incidence of infusion reactions,[3]; pegloticase 8 mg every 2 weeks (biweekly dosing),26%
same,incidence of infusion-related reactions,[3]; pegloticase 8 mg every-4-week dosing regimen,40%
same,frequency of anaphylaxis,[3]; pre-marketing controlled clinical trials,6.5%
same,patients with antibody titer exceeding 1:2430 at any time who maintained a response,[4]; 7 of 65 patients,10.8%
same,patients with antibody titers exceeding 1:2430 who developed IRs,[4]; 31 of 52 patients,60%
same,patients who never had an antibody titer above 1:2430 (comparison for maintained response),[4]; 58/65,89.2%
same,participants with high antibody titers who maintained a response (serum urate <6 mg/dL),[4]; second study,1 of 52 participants

# Source: US20220323445A1, “REDUCING IMMUNOGENICITY TO PEGLOTICASE” (Horizon Therapeutics Ireland DAC, priority 2020, published 2022)
